# Source: US20250154120A1, “COUMARIN COMPOUNDS AND USES THEREOF” (priority 2022, published 2025)
# Like-named read-outs stand apart in the source and are kept apart here.
# How the values were obtained:
# HCT116 cells = assay: HCT116 cell proliferation inhibition in vitro (3D CellTiter-Glo, 5 days); type: cell-based; conditions: Homo sapiens, HCT-116, 120 h, read-out: HCT116/IC50
# Protocol: McCoy's 5A medium, penicillin/streptomycin antibiotics purchased from Vicente, fetal bovine serum purchased from Biosera. 3D CellTiter-Glo (cell viability chemiluminescence detection reagent) reagent purchased from Promega. HCT116 cell line purchased from Nanjing Kebai Biotechnology Co., Ltd. Envision multi-label analyzer (PerkinElmer).
# HCT116 cells were seeded in ultra-low attachment 96-well U-shaped plates, with 80 μL of cell suspension per well, containing 1000 HCT116 cells. The cell plate was cultured in a carbon dioxide incubator overnight.
# The compound to be tested was serially diluted 5-fold to the 9th concentration using a pipette, that is, from 2 mM to 5.12 nM, in duplicates. 78 μL of culture medium was added to a middle plate, and then 2 μL of the serially diluted compound per well was transferred to the middle plate according to the corresponding position. After mixing well, 20 μL of the mixture was transferred to each well of the cell plate. The concentration range of the compound transferred to the cell plate was 10 μM to 0.0256 nM. The cell plate was placed in a carbon dioxide incubator and cultured for 5 days. Another cell plate was prepared, and its signal value was read on the day of drug addition as the […] for data analysis.
# 100 μL of cell viability chemiluminescent detection reagent was added to the cell plate and the mixture was incubated at room temperature for 10 minutes to stabilize the luminescent signal. The plate was read using a multi-label analyzer.
# The raw data was converted into inhibition rate using the equation (Sample−Min)/(Max−Min)*100%, and the IC50 value may be obtained by four-parameter curve fitting (obtained in the “log(inhibitor) vs. response—Variable slope” mode in GraphPad Prism). The assay results of the inhibitory activity of the compounds of the present disclosure on HCT116 cell proliferation are shown in Table 1.
# [1] = Pharmacokinetic study in CD-1 male mice after oral and intravenous administration; type: in vivo; conditions: mouse, plasma; for AUC(0-t): read-out: Area under the plasma concentration-time curve AUC0-last
# Protocol: Pharmacokinetic study of the test compound in CD-1 male mice after oral and intravenous injection
# The test compound was mixed with 10% dimethyl sulfoxide/30% PEG-400/60% aqueous solution, vortexed and sonicated to prepare a 0.20 mg/mL clear solution. The clear solution was filtered through a microporous filter for later use. Male CD-1 mice aged 7 to 10 weeks were selected and intravenously injected with a candidate compound solution and a reference compound VS-6766 solution. The reference compound and the test compound were respectively mixed with 20% sulfobutyl-β-cyclodextrin/80% aqueous solution, vortexed and sonicated to prepare a 0.20 mg/mL nearly transparent solution containing fine particles, and the candidate compound solution was orally administered. Whole blood was collected for a certain period of time, and the plasma was prepared. The drug concentration was analyzed by LC-MS/MS method, and the pharmacokinetic parameters were calculated using Phoenix WinNonlin software (Pharsight, USA).
# NCI-H358 = assay: Subcutaneous xenograft tumor model of human non-small cell lung cancer NCI-H358 in female BALB/c Nude mice; type: in vivo, mouse
# Protocol: In vivo pharmacodynamic study of the test drug on the subcutaneous xenograft tumor model of human non-small cell lung cancer NCI-H358 in female BALB/c Nude mice
# 1. Cell culture: Human lung cancer cells NCI-H358 (ECACC-95111733) were revived and cultured in vitro in monolayers in RPMI 1640 medium with 10% fetal bovine serum and 1% double antibody. The cells were cultured in a 37° C. 5% CO2 cell incubator, and passaged twice a week. When the saturation of NCI-H358 cells reached 80%-90%, the cells were harvested, counted, and inoculated.
# 2. Animals: BALB/c Nude mice, female, 6-8 weeks old, weighing 18-22 g
# 3. Tumor inoculation: 5×10^6 NCI-H358 cells were inoculated on the right side of the neck of each mouse, with an inoculation volume of 0.1 mL. The cell suspension was a mixture of PBS and Matrigel (3:1). When the average tumor volume reached 150-200 mm^3, the mice were randomly divided into groups for drug administration. The drug administration scheme and the number of assay animals in each group are shown in Table 3 below: Assay animal grouping and administration regimen
# The assay index is to examine whether the tumor growth is inhibited, delayed or cured. The tumor diameter was measured with a vernier caliper twice a week. The calculation formula of tumor volume is: V=0.5 a×b^2, where a and b represent the long diameter and short diameter of the tumor respectively.
# The anti-tumor efficacy of the compound was evaluated by TGI (%) or relative tumor proliferation rate T/C (%). TGI (%) reflects the tumor growth inhibition rate. Calculation of TGI (%): TGI (%)=[1−(average tumor volume of a certain treatment group at a certain measurement−average tumor volume of the treatment group at grouping)/(average tumor volume of the vehicle control group at the same measurement−average tumor volume of the vehicle control group at grouping)]×100%. Relative tumor proliferation rate T/C (%): The calculation formula is as follows: T/C %=TRTV/CRTV×100% (TRTV: RTV of the treatment group; CRTV: RTV of the negative control group). The relative tumor volume (RTV) was calculated based on the results of tumor measurement. The calculation formula is RTV=VtV0, where V0 is the average tumor volume measured at grouping (i.e. PG-D0), Vt is the average tumor volume at a certain measurement, and TRTV and CRTV are taken from the same day.
# TGI (%) reflects the tumor growth inhibition rate. TGI (%)=[(1−(average tumor volume at the end of a treatment group's administration−average tumor volume at the beginning of the treatment group's administration))/(average tumor volume at the end of the vehicle control group's treatment−average tumor volume at the beginning of the vehicle control group's treatment)]×100%.
# [2] = HCT116 cells, 5 days culture, cell viability chemiluminescence
# [3] = 0.3 mg/kg p.o. QD, day 28 (discontinued D10-D17 and D23-D25)
# [4] = 1.5 mg/kg p.o. QD, day 28 (discontinued D3-D13, changed to 0.05 after D14)
SMILES,IC50 (HCT116 cells; [2]) [nM],IC50 (HCT116 cells) [nM],"Vd ([1]; intravenous injection, 1.04 mg/kg, read-out: Apparent volume of distribution Vdss) [L/kg]","AUC(0-t) ([1]; intravenous injection, 1.04 mg/kg) [µM·h]","clearance ([1]; intravenous injection, 1.04 mg/kg, read-out: Clearance CL) [mL/min/kg]","half-life ([1]; intravenous injection, 1.04 mg/kg, read-out: Half-life T1/2 (converted)) [h]","AUC(0-t) ([1]; oral administration, 2.16 mg/kg) [µM·h]","Cmax ([1]; oral administration, 2.16 mg/kg, read-out: Peak concentration Cmax) [µM]","Tmax ([1]; oral administration, 2.16 mg/kg, read-out: Time to peak Tmax) [h]","bioavailability ([1]; oral administration, 2.16 mg/kg, read-out: Bioavailability F) [%]",Mean tumor volume (NCI-H358; [3]) [mm^3],T/C (NCI-H358; [3]) [%],TGI (NCI-H358; [3]) [%],Mean tumor volume (NCI-H358; [4]) [mm^3],T/C (NCI-H358; [4]) [%],TGI (NCI-H358; [4]) [%]
CNS(=O)(=O)Nc1cccc(Cc2c(C)c3c(F)cc(Oc4ncccn4)cc3oc2=O)c1F [Compound 1],17,–,–,–,–,–,–,–,–,–,–,–,–,–,–,–
CNS(=O)(=O)Nc1cccc(Cc2c(C)c3c(F)cc(OC(=O)N(C)C)cc3oc2=O)c1F [Compound 2],–,7.2,–,–,–,–,–,–,–,–,–,–,–,–,–,–
CNS(=O)(=O)Nc1nccc(Cc2c(C)c3c(F)cc(Oc4ncccn4)cc3oc2=O)c1F [Compound 3],28.7,–,0.35,46.8,0.69,5.73,85.8,10.9,0.63,89.8,71,7.90,111.4,67,7.45,111.9
